Holding throughout (design): species or system Severe acute respiratory syndrome-related coronavirus
Experiment [1] can be described thus: Inhibition of SARS-CoV Main protease.
The nature of experiment [2]: Inhibition of SARS-CoV Main protease assessed as inhibition constant.
Experiment [3] in a line: Inhibition of His-tagged SARS-CoV 3CLpro using Abz-SVTLQSG-Tyr(NO2)R as substrate by fluorometric assay.

From ChEMBL document CHEMBL6114978, “Rational design and synthesis of pyrazole derivatives as potential SARS-CoV-2 Mpro inhibitors: An integrated approach merging combinatorial chemistry, molecular docking, and deep learning” (Bioorg Med Chem, 2025) come the findings set out here.

Broadly, the IC50 is the concentration at which inhibition is half-maximal. Higher therefore signals weaker potency in that assay. `CC(C)(C)c1ccc(N(C(=O)c2cnc[nH]2)[C@@H](C(=O)NC2CCCCC2)c2cccnc2)cc1` showed an IC50 in experiment [1] of 1600 nM.

Broadly, the Ki is a measure of affinity in units of concentration, obtained from inhibition or displacement. On to `Cc1cc(C(=O)N[C@@H](C)C(=O)N[C@H](C(=O)N[C@@H](CC(C)C)C(=O)N[C@H](/C=C/C(=O)OCc2ccccc2)C[C@@H]2CCNC2=O)C(C)(C)C)no1`, for which, in experiment [2], the Ki worked out at 3300 nM. As for `CC(=O)N[C@H](CN[C@H](C(=O)N[C@@H](CC(C)C)C(=O)N[C@@H](C[C@@H]1CCNC1=O)C(=O)Cn1[nH]c(=O)c2c([N+](=O)[O-])cccc2c1=O)[C@@H](C)OCc1ccccc1)C(C)C`, half-maximal inhibition in experiment [3] (IC50) required 600 nM.
